Source: patent US20110104177A1, “HISTONE DEACETYLASE INHIBITORS, COMBINATION THERAPIES AND METHODS OF USE” (THE JOHNS HOPKINS UNIVERSITY, priority 2006, published 2011)

Tests used:
SIRT1 = target: T1, SIRT1 (Homo sapiens, UniProt Q96EB6); assay: SIRT1 p53-382 IC50 assay; type: biochemical
T1 sequence (Q96EB6 1-747): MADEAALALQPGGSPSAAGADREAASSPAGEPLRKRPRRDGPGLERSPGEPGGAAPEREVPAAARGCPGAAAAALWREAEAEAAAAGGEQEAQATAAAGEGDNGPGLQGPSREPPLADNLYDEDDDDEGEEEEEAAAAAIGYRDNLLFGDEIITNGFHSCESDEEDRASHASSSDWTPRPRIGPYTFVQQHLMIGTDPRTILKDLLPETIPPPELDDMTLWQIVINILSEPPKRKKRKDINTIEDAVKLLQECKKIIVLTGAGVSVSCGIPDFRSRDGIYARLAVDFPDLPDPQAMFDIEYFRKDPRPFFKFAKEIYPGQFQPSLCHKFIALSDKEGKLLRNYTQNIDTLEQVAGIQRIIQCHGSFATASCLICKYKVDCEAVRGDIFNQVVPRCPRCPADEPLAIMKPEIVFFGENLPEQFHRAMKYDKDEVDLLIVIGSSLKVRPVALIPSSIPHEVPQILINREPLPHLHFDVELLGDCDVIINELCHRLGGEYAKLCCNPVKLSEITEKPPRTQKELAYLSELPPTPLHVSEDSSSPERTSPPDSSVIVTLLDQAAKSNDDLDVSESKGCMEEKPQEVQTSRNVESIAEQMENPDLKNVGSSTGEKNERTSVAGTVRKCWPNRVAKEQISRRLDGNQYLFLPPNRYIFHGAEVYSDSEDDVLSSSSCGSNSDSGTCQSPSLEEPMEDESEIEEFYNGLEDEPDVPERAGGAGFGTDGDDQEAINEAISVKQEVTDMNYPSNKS

[1] = test system: cyclin-D1 promoter reporter in RKO cells; assay: β-catenin-responsive cyclin-D1 promoter reporter assay; type: cell-based, human; settings: SPT treatment, data not shown
Method: Reporter assays were performed as described previously using the β-catenin-responsive TCF reporter and the cyclin D1 reporter. Briefly, prior to transfection, RKO cells were plated in six-well tissue culture dishes and grown until they reached 80%-90% confluence. Cells were transfected with 500 ng of pGL3-OT, a TCF-LEF-responsive reporter, or pGL3-OF, a negative control with a mutated TCF-LEF binding site in combination with 10 ng of pRL-CMV vector. Twenty-four hours post-transfection, cells were treated with either vehicle (DMSO) control or with 700 μM SPT for 24 hours. According to the manufacturer's instructions, Firefly luciferase activity was measured via a luminometer (BD Biosciences) and normalized to the Renilla luciferase activities by using the Dual Luciferase Reporter System (Promega, Madison, Wis., United States).

[2] = test system: β-catenin-responsive TCF reporter (Wnt pathway) in RKO cells; assay: β-catenin-responsive TCF reporter assay; type: cell-based, human; settings: 700 μM SPT for 24 hours
Method: The panels of FIG. 6. […] Error bars indicate standard deviation from the average of three experiments. FIG. 6(B) provides the results obtained from experiments in which RKO cells were transfected with 500 ng of pGL3-OT, a TCF-LEF-responsive reporter, or pGL3-OF, a negative control with a mutated TCF-LEF binding site in combination with 10 ng of pRL-CMV vector. Twenty-four hours post-transfection, cells were treated with either vehicle (DMSO) control or with 700 μM SPT for 24 hours. Firefly luciferase activity was measured and normalized to the Renilla luciferase activities. The experiments shown in FIG. 6(C) were performed as described in FIG. 6(A), in which pooled populations of MDA-MB-231 cells stably expressing RNAi-2 or RNAi-3 were harvested, protein concentrations were determined, and Western blot analysis was performed. An antibody that specifically recognizes the unphosphorylated (active) form of β-catenin was used, and on the same blot, β-actin was probed to ensure equal loading. […]
Reporter assays were performed as described previously using the β-catenin-responsive TCF reporter and the cyclin D1 reporter. […] According to the manufacturer's instructions, Firefly luciferase activity was measured via a luminometer (BD Biosciences) and normalized to the Renilla luciferase activities by using the Dual Luciferase Reporter System (Promega, Madison, Wis., United States).

[3] = test system: SFRP1, SFRP2, E-cadherin, CRBP1 genes in MDA-MB-231 cells; assay: RT-PCR re-expression of silenced tumor suppressor genes in MDA-MB-231 cells; type: cell-based, human
Method: The panels of FIG. 2 are as follows. […] MDA-MB-231 cells were treated with 15 mM NIA or 300 μM SPT for 21 hours, RNA was isolated, and RT-PCR was performed with intron-spanning primers specific for the indicated genes. Control samples in which no reverse transcriptase was added were analyzed separately, and all were negative for amplification of the indicated genes. […] MDA-MB-231 cells were treated with either 50 nM Aza (+), 100 μM SPT (+) or with both Aza and SPT (++), and 34 hours later, RT-PCR was performed for the indicated genes as described in FIG. 2(A). […] MDA-MB-231 cells were treated with either 0, 50, 100, or 120 μM SPT alone for 34 hours, or the treatment was followed by treatment with 300 nM TSA for 3 hours prior to RNA isolation and RT-PCR analysis. […] MDA-MB-231 cells were infected with low titers of virus for shRNA specific for SIRT1. Aza (100 nM) was added 24 hours prior to RNA isolation, and RT-PCR analysis was performed for the genes SFRP 1, SFRP2, and GAPDH as described in FIG. 2(A). […] As shown in the left panel, MDA-MB-231 cells were infected with a control (vec) or mutant SIRT1 virus (HY), and RT-PCR was performed as described in FIG. 2(A). MDA-MB-231 cells were infected with low titers of pBabe or pBabe-SIRT1H363Y retrovirus and subsequently treated with 100 nM Aza for 24 hours or with 300 nM TSA for 3 hours prior to harvest, and RT-PCR was performed.
(§1) Cell culture and retroviral infection. MDA-MB-231, MCF7, HCT116, SW480 RKO, and Phoenix cells (ATCC, Rockville, Md., United States) were cultured in Dulbecco's modified Eagle's medium supplemented with 10% fetal bovine serum and 1% penicillin/streptomycin (Invitrogen, Carlsbad, Calif., United States). Retroviral infection was performed using either single or multiple rounds of infection. Briefly, Phoenix cells were transfected with either pBabe, pBabe-SIRT1H363Y, pSUPERretro, pSUPERretro-SIRT1-RNAi-1-3 (NM_012238 positions 410, 589, and 1091; Oligo Engine, Seattle, Wash., United States) using Lipofectamine 2000 (Invitrogen). After 48 h of transfection, the medium containing retrovirus was collected, filtered, and supplemented with Polybrene prior to infection of target cells (MDA-MB-231, MCF7, or HCT116). Infected cells were either harvested 24-48 hours later or subjected to selection with 2-3 μg/ml puromycin for a week prior to harvest and analysis.
(§2) RNA and protein preparation and analysis. Total RNA was extracted (Invitrogen) according to the manufacturer's instructions and subjected to reverse transcription followed by both quantitative real-time and semi-quantitative polymerase chain reaction. For quantitative real-time analyses, the QuantiTect SYBR Green PCR kit (Qiagen, Valencia, Calif., United States) was used and the amplification conditions consisted of an initial 10-minutes denaturation step at 95° C., followed by 40 cycles of denaturation at 95° C. for 15 s and annealing and extension for 30 seconds and 60 seconds, respectively. A BioRad iCycler was used (BioRad, Hercules, Calif., United States), and for quantitation the comparative cycle threshold (Ct) method was used, normalizing the Ct values for the indicated gene to the Ct values of GAPDH relative to a control sample. For conventional PCR, at least two independent sets of intron-spanning primers were used for the analysis of multiple genes, such as CRBP1, (NM_002899), E-cadherin, (L34545), SFRP1, (BC036503), SFRP2, (BC008666), and Gata-4 (L34357). For Western blots, cells stably expressing RNAi constructs were harvested in 50 mM Tris-HCl, 1% NP-40, 0.25% sodium deoxycholate, 150 mM NaCl, 50 mM sodium fluoride, 1 mM dithiothreitol, 1 mM AEBSF, 1× Complete protease inhibitor cocktail (Roche, Basel, Switzerland). Protein concentrations were measured by BCA (Pierce Biotechnology, Rockford, Ill., United States). […] On the same blot, β-actin (Sigma, St. Louis, Mo., United States) was probed to ensure equal loading.

[4] = test system: SFRP1 and SFRP2 genes in MCF7 cells; assay: RT-PCR re-expression of silenced tumor suppressor genes in MCF7 cells; type: cell-based, human; settings: sirtuin inhibitors, data not shown
Method: as §1, §2

IC50 (SIRT1) | SMILES | reduction in the activation of a β-catenin-responsive cyclin-D1 promoter reporter construct [1] | reduction in the activation of a β-catenin-responsive TCF reporter construct [2] | re-expression of the gene panel, single agent at low dose ([3]; Aza (50 nM) or SPT (50 μM) alone) | re-expression of epigenetically silenced, hypermethylated TSGs incl. CRBP1 ([3]; MDA-MB-231 cells, 15 mM NIA or 300 μM SPT for 21 hours) | re-expression of epigenetically silenced, hypermethylated TSGs [4]
> 10 µM | O=C(NO)C1CCCc2c1[nH]c1ccc(Cl)cc21 (stereo not drawn) [Compound 7, 6-Chloro-2,3,4,9-tetrahydro-1H-carbazole-1-carboxylic acid hydroxyamide] |  |  |  |  | 
 | O=C1CCc2c(ccc3ccccc23)O1 [SPT, splitomicin, reference compound] | 50% | 50% | ineffective as single agents | could cause the re-expression | could cause the re-expression
